Results: patent publication US10150736B2, “Haptens and immunoreactive agents and use thereof for producing family antibodies and immunoassays for quinolones” (Consejo Superior de Investigaciones Cientificas (CSIC), priority 2010, dated 2018)
Converted amounts (≈) assume the structure as drawn.

What was measured:
Type in all cases: binding, rabbit
[1] = tested on: antibodies developed with immunoreactive agents described herein; test: Determination of cross-reactivity by ELISA; settings: for % CR (cross-reactivity): (DI50 CPFX/DI50 of tested compounds)×100; for IC50: competitive ELISA, antiserum and immunoreactive agent not named
Description: (§1) Microtiter plates were coated with corresponding coating antigen (indirect format) or antiserum (direct format) dissolved in coating buffer (100 μL/well) overnight at 4° C. or during 4 hours at room temperature and covered with airtight adhesive plates. Subsequently, plates were washed with PBST (four times, 300 μL/well) and quinolone patters were added (0.01 nM-10000 nM, in PBST, 50 μL/well) followed by the corresponding antiserum (indirect format) or enzymatic tracer (direct format) (50 μL/well) in microtiter plates. After 30 minutes at room temperature, plates were washed as described above and, in the case of indirect format, a solution of antilgG rabbit IgG labelled with HRP (1/6000 in PBST) (100 μl/well) was added and incubated for 30 minutes at room temperature. Plates were washed again, and for both formats, substrate solution was added (100 μL/well). Color development was stopped after 30 minutes at room temperature with […] (50 μL/well), and absorbance was read at 450 nm. Standard curves were adjusted to a four parameter equation, using the following formula: Y−[(A−B)/1−[x/C)D]+B, where A represents maximum absorbance, B represents minimum absorbance, C represents the concentration producing 50% of maximum absorbance, and D represents the tangent at the inflection point of sigmoid curve.
Stock solutions were prepared at a concentration of […] for different quinolones and other antibiotics in sodium hydroxide ([…]) and measured by ELISA. Cross-reactivity values were calculated according to the equation below: (DI50 CPFX/DI50 of tested compounds)×100.

[2] = tested on: antiserum (As) 173; test: Competitive ELISA for ciprofloxacin, antiserum 173, coating antigen (indirect format)
Description: (§2) Immunization protocol was conducted in female white rabbits from New Zealand weighing 1-2 Kg, as described previously (Salvador, Analytical Chemistry. 2007, 79, 3734-3740). Immunogens (100 μg) dissolved in PBS (0.5 mL) were emulsified with Freund's adjuvant, completely the first time and the remainder incompletely, in 1:1 ratio. They were rapidly injected intradermally in different places of the host animal back (one injection per month). Antibody titers evolution was assessed by measuring serial dilutions binding of different antiserum in microtiter plates coated with the corresponding immunoreactive agent. After observing an acceptable antibody titer, animals were bled to death and their blood was collected in Vacutainer tubes fitted with a serum separating gel. Antiserum were obtained by centrifugation and stored at −80° C. in the presence of 0.02% NaN3.
as §1, with “Plates were washed again, and for both formats, substrate solution was added (100 μL/well).” left out

[3] = tested on: antiserum (As) 171; test: Competitive ELISA for ciprofloxacin, antiserum 171, coating antigen (indirect format)
Description: as §2
as §1, with “Plates were washed again, and for both formats, substrate solution was added (100 μL/well).” left out

[4] = tested on: antiserum (As) 171; test: Competitive ELISA for ciprofloxacin, antiserum 171 with HRP conjugate I31 (enzymatic tracer); settings: As 171 dilution 1/8000; IR I31 0.0625 μg/mL
Description: as §2, with “After observing an acceptable antibody titer, animals were bled to death and their blood was collected in Vacutainer tubes fitted with a serum separating gel. Antiserum were obtained by centrifugation and stored at −80° C. in the presence of 0.02% NaN3.” left out
Microtiter plates were coated with corresponding coating antigen (indirect format) or antiserum (direct format) dissolved in coating buffer (100 μL/well) overnight at 4° C. or during 4 hours at room temperature and covered with airtight adhesive plates. […] Color development was stopped after 30 minutes at room temperature with […] (50 μL/well), and absorbance was read at 450 nm. Standard curves were adjusted to a four parameter equation, using the following formula: Y−[(A−B)/1−[x/C)D]+B, where A represents maximum absorbance, B represents minimum absorbance, C represents the concentration producing 50% of maximum absorbance, and D represents the tangent at the inflection point of sigmoid curve.

[5] = tested on: antiserum (As) 172; test: Competitive ELISA for ciprofloxacin, antiserum 172, coating antigen (indirect format)
Description: as §2
as §1, with “Plates were washed again, and for both formats, substrate solution was added (100 μL/well).” left out

Row | SMILES | % CR (cross-reactivity) [1] [%] | IC50 [1] [μg-L^−1] | other results
1 | CC1(C)S[C@@H]2[C@H](NC(=O)[C@H](N)c3ccccc3)C(=O)N2[C@H]1C(=O)O [Ampicillin] | <0.2 | >1000 | 
2 | O=C(N[C@H](CO)[C@H](O)c1ccc([N+](=O)[O-])cc1)C(Cl)Cl [Chloramphenicol] | <0.2 | >1000 | 
3 | O=C(O)c1cn(C2CC2)c2cc(N3CCNCC3)c(F)cc2c1=O [Ciprofloxacin] | 100 | 0.77 ± 0.27 | IC50 ([2]; As 173 dilution 1/16000, IR I16 5 μg/mL): 134.68 µg/L (≈ 0.406 µM); IC50 ([2]; As 173 dilution 1/16000, IR I26 0.25 μg/mL): 1.49 µg/L (≈ 0.0045 µM); IC50 ([2]; As 173 dilution 1/128000, IR I19 0.0156 μg/mL): 48.55 µg/L (≈ 0.147 µM); IC50 ([3]; As 171 dilution 1/16000, IR I16 2.5 μg/mL): 16.40 µg/L (≈ 0.0495 µM); IC50 ([3]; As 171 dilution 1/16000, IR I26 0.25 μg/mL): 1.66 µg/L (≈ 0.00501 µM); IC50 ([3]; As 171 dilution 1/128000, IR I19 0.0156 μg/mL): 4.81 µg/L (≈ 0.0145 µM); IC50 [4]: 0.81 µg/L (≈ 0.00244 µM); IC50 ([5]; As 172 dilution 1/4000, IR I16 2.5 μg/mL): 38.39 µg/L (≈ 0.116 µM); IC50 ([5]; As 172 dilution 1/4000, IR I26 0.25 μg/mL): 11.56 µg/L (≈ 0.0349 µM); IC50 ([5]; As 172 dilution 1/32000, IR I19 0.0156 μg/mL): 27.60 µg/L (≈ 0.0833 µM)
4 | CN1C[C@@H]2C[C@H]1CN2c1cc2c(cc1F)c(=O)c(C(=O)O)cn2C1CC1 [Danofloxacin] | 8 | 7.31 | 
5 | CN1CCN(c2cc3c(cc2F)c(=O)c(C(=O)O)cn3-c2ccc(F)cc2)CC1 [Difloxacin] | 75 | 0.91 | 
6 | CCN1CCN(c2cc3c(cc2F)c(=O)c(C(=O)O)cn3C2CC2)CC1 [Enrofloxacin] | 95 | 0.65 | 
7 | CC1CCc2cc(F)cc3c(=O)c(C(=O)O)cn1c23 (stereo not drawn) [Flumequine] | 22 | 3.91 | 
8 | CN1CCN(c2c(F)cc3c(=O)c(C(=O)O)cn4c3c2OCN4C)CC1 [Marbofloxacin] | 28 | 4.30 | 
9 | CCn1cc(C(=O)O)c(=O)c2cc(F)c(N3CCNCC3)cc21 [Norfloxacin] | 81 | 0.78 | 
10 | CCn1cc(C(=O)O)c(=O)c2cc3c(cc21)OCO3 [Oxolinic acid] | 4 | 23.53 | 
11 | O=C(O)c1cn(-c2ccc(F)cc2)c2cc(N3CCNCC3)c(F)cc2c1=O [Sarafloxacin] | 80 | 0.96 | 
12 | Cc1cc(C)nc(NS(=O)(=O)c2ccc(N)cc2)n1 [Sulfamethazine] | <0.2 | >1000 | 
13 | Nc1ccc(S(=O)(=O)Nc2nccs2)cc1 [Sulfathiazole] | <0.2 | >1000 | 
